# pIC50: −log10 of the molar value. Read-outs that look alike come from different tables or passages of the source.
# Experiments:
# [1] = system: MDS/AML cell lines and patient-derived samples; test: Clonogenic assay (colony formation in methylcellulose); type: cell-based, human; settings: for Inhibition of colony formation: MDSL, TF1, AML1714, AML1294, methylcellulose
# [2] = system: NF-kB activity upon TLR2 stimulation with PAM3CSK4 in THP1-Blue NF-kB SEAP reporter cells; test: THP1-Blue NF-kB SEAP reporter assay, TLR2 stimulation with PAM3CSK4; type: cell-based, human; settings: for pIC50: read-out: IC50 vs. Pam3CSK4 (TLR2-mediated NF-kB activation)
# [3] = Homo sapiens, THP-1, THP1 NF-kB reporter cells
SMILES,"Sensitivity of IRAK1KO MDS/AML cells (growth, colony formation) ([1]; IRAK1KO versus WT THP1 and MDSL cells)",Inhibition of colony formation [1],"pIC50 [2, 3]","IC50 ([2]; Homo sapiens, THP-1, Table 1, unit nM, read-out: THP-1 NFkB PAM IC50) [nM]",pIC50 ([2]; THP1 NF-kB reporter cells),"Suppression of NF-kB signaling through TLR2 ([2]; THP1 NF-kB reporter cells, result in words)","LOG (PAM) ([2]; Table 1, log of PAM IC50)"
"Cc1cc(-c2nc(C(=O)Nc3cc4oc(N5CCOCC5)nc4nc3N3CC[C@@H](O)C3)co2)ccn1 [CA-4948, emavusertib]",more sensitive,"dose-dependent, yet incomplete, inhibition of colony formation",6.30,–,–,–,–
"CC[C@@H]1[C@H](F)C(=O)N[C@@H]1COc1nccc2cc(C(N)=O)c(OC)cc12 [PF-06650833, Zimlovisertib]",–,inhibition of colony formation by MDSL and TF1 cells but was less effective at suppressing the patient-derived AML samples,8.14,496,8.15,fully suppress,2.70

# From patent publication US20260034112A1, “MULTI-CYCLIC IRAK1 AND IRAK4 INHIBITING COMPOUNDS AND USES THEREOF” (CHILDREN'S HOSPITAL MEDICAL CENTER, priority 2022, published 2026)
